Test results from ChEMBL document CHEMBL1201862, “PubChem BioAssay data set” (2004).
Active and inactive are the calls of the source.

Key:
[1] = target: T1, Kappa-type opioid receptor (Homo sapiens, UniProt P41145); test: SAR analysis of small molecule agonists of the kappa opioid receptor via a luminescent beta-arrestin assay - Set 3. [Related pubchem assays (depositor defined):AID1777, AID1785, AID1786, AID1966, AID2133, AID2136, AID2284, AID2500]; format: functional
[2] = target: T2, Delta-type opioid receptor (Homo sapiens, UniProt P41143); test: SAR Analysis of Agonists of the DOR Receptor using an Image-Based Assay - Set 3. [Related pubchem assays (depositor defined):AID1777, AID1786]; format: functional
Mu-type opioid receptor [3] = target: T3, Mu-type opioid receptor (Homo sapiens, UniProt P35372); test: SAR Analysis of Agonists of the MOR Receptor using an Image-Based Assay - Set 3. [Related pubchem assays (depositor defined):AID1777, AID1785, AID1786, AID1966, AID2133, AID2136, AID2284, AID2285, AID2352]; format: functional
[4] = target: T1, Kappa-type opioid receptor; test: kappa opioid receptor activation by imaging – image-based, set 3, SAR follow-up (AID 488833); format: functional
[5] = target: T4, Intestinal-type alkaline phosphatase (Homo sapiens, UniProt P09923); test: human intestinal alkaline phosphatase activators, dose response, biochemical, luminescence, uHTS hits (AID 463120); format: functional
[6] = target: T5, Intestinal-type alkaline phosphatase (Mus musculus, UniProt P24822); test: PubChem AID 488874; format: functional
[7] = target: T4, Intestinal-type alkaline phosphatase; test: activation of human intestinal alkaline phosphatase – biochemical, luminescent, uHTS hits, set 2, dose response (AID 488817); format: functional;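 also: potency of activators that raise enzyme activity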
[8] = target: T6, Alkaline phosphatase, tissue-nonspecific isozyme (Homo sapiens, UniProt P05186); test: activation of tissue-nonspecific alkaline phosphatase – biochemical, TNAP isozyme, human IAP uHTS hits, selectivity assay for human IAP activator project, dose response (AID 488886); format: functional;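 also: potency of compounds raising TNAP activity as a selectivity check on IAP activators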
T6 sequence (P05186 whole entry): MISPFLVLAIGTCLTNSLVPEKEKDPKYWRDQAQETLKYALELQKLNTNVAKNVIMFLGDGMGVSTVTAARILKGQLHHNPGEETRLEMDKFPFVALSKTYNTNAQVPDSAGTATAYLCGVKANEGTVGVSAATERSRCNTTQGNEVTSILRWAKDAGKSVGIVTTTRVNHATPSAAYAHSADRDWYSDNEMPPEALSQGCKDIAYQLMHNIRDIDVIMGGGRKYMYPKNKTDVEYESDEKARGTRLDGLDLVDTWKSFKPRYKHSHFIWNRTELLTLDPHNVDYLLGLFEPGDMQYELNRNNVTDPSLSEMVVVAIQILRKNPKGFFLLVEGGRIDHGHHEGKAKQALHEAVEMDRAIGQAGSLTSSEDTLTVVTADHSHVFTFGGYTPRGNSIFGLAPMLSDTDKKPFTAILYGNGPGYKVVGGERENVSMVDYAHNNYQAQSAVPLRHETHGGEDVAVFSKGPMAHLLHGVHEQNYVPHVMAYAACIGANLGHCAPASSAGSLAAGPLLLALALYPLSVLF

[9] = target: T5, Intestinal-type alkaline phosphatase; test: PubChem AID 488875; format: functional
Bcl-2-like protein 10 = Bcl-2-like protein 10 (Homo sapiens, UniProt Q9HD36); test: Bcl-B/TR3 peptide binding disruption – biochemical, fluorescence polarization, FITC-TR3 peptide, selectivity assay for Bfl-1 inhibitor project, primary screen (AID 748);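 also: fluorescence polarization from a fluorescein-labelled TR3 peptide binding purified Bcl-B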
Saccharomyces cerevisiae = test: S. cerevisiae Caspase-1/ASC signal blockers IC50, NALP1 inhibitor project selectivity test (AID 488863); format: functional, organism-based
[10] = target: NACHT, LRR and PYD domains-containing protein 1 (Homo sapiens, UniProt Q9C000); test: NALP1 inhibitors in yeast, dose response, luminescent (AID 488860); format: functional
[11] = target: T1, Kappa-type opioid receptor; test: SAR analysis of Antagonists of the Kappa Opioid Receptor (KOR) using an Image-Based Assay - Set 3. [Related pubchem assays (depositor defined):AID1777, AID1785]; format: functional
[12] = target: T1, Kappa-type opioid receptor; test: SAR analysis of small molecule antagonists of the kappa opioid receptor via a luminescent beta-arrestin assay - Set 3. [Related pubchem assays (depositor defined):AID1777, AID1778, AID1785, AID1786, AID1966, AID2133, AID2136, AID2285, AID2495]; format: functional
[13] = target: T2, Delta-type opioid receptor; test: SAR Analysis of Antagonists of the DOR Receptor using an Image-Based Assay - Set 3. [Related pubchem assays (depositor defined):AID1777, AID1785]; format: functional
Mu-type opioid receptor [14] = target: T3, Mu-type opioid receptor; test: SAR Analysis of Antagonists of the MOR Receptor using an Image-Based Assay - Set 3. [Related pubchem assays (depositor defined):AID1777, AID1785, AID1786, AID1966, AID2133, AID2136, AID2284, AID2285, AID2420]; format: functional
[15] = target: E3 ubiquitin-protein ligase Mdm2 (Homo sapiens, UniProt Q00987); test: MDM2-luc reporter signal enhancers, multi-concentration potency testing, MDM2 ubiquitin-protein ligase inhibitor program, whole-cell format, luminescence detection, 384-well microplate (AID 1394); format: functional;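 also: MDM2 E3 inhibitors raise luminescence so EC50 is for signal enhancement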
[16] = target: T7, Voltage-gated N-type calcium channel alpha-1B subunit/Amyloid beta A4 precursor protein-binding family A member 1 (Homo sapiens, UniProt Q00975+Q02410); format: protein assay
[17] = target: Hepatocyte nuclear factor 4-alpha (Homo sapiens, UniProt P41235); format: functional, cell-based;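 also: biochemical luminescence-based dose-response counterscreen measuring inhibition of HNF4 dimerization, run alongside a screen for blockers of ABHD5–perilipin-5 interaction; split luciferase complementation of HNF4 fusion proteins in cell lysate measuring dimerization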
[18] = target: T8, Microphthalmia-associated transcription factor (Homo sapiens, UniProt O75030); test: reducers of TRPM1 reporter luminescence, concentration series – cell-based, SK-MEL-5, cherry-picked, set 3, MITF inhibitor project, dose response (AID 493073); format: functional;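 also: SK-MEL-5 melanoma cells with luciferase driven by the MITF target TRPM1 promoter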
T8 sequence (O75030 whole entry): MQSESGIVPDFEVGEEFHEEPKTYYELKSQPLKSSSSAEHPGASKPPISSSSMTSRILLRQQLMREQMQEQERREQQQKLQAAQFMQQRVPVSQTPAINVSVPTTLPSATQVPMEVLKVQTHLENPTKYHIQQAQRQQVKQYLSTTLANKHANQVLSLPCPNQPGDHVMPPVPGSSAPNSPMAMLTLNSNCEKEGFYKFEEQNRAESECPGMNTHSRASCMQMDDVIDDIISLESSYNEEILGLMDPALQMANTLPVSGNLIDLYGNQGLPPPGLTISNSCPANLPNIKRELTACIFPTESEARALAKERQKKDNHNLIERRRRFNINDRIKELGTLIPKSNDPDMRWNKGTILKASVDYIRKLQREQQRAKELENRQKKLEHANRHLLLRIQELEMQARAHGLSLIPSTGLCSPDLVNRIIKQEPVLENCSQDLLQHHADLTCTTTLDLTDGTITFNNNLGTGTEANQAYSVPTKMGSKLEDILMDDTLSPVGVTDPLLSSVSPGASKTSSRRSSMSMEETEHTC

[19] = target: T7, Voltage-gated N-type calcium channel alpha-1B subunit/Amyloid beta A4 precursor protein-binding family A member 1; format: protein assay; remark: listed apart in the source
[20] = Luminescence Cell-Based Dose Response HTS to Identify Activators of Luciferase Translation or Activity in H4 […] Cells. [Related pubchem assays: 1829 (Project Summary), 1814 (Primary HTS)]; format: functional
[21] = Luminescence Cell-Based Dose Response HTS to Identify Activators of Luciferase Translation or Activity in H4-C Neuroglioblastoma Cells. [Related pubchem assays: 1829 (Project Summary), 1814 (Primary HTS)]; format: functional
[22] = Luminescence Cell-Based Dose Response HTS to Identify Activators of 5'UTR Stem-Loop Driven Prion Protein mRNA Translation in H4-C Neuroglioblastoma Cells. [Related pubchem assays: 1829 (Project Summary), 1814 (Primary HTS)]; format: functional
H4 = test: Luminescence Cell-Based Dose Response HTS to Identify Activators of 5'UTR Stem-Loop Driven Prion Protein mRNA Translation in H4 Neuroglioblastoma Cells. [Related pubchem assays: 1829 (Project Summary), 1814 (Primary HTS)]; format: functional; settings: Homo sapiens
[23] = Luminescence Cell-Based Dose Retest to Confirm Activators of 5'UTR Stem-Loop Driven Alpha-Synuclein mRNA Translation in H4 Neuroglioblastoma Cells. [Related pubchem assays (depositor defined):AID1813, AID1829]; format: functional
[24] = Luminescence Cell-Based Dose Confirmation HTS to Identify Activators of 5'UTR Stem-Loop Driven Alpha-Synuclein mRNA Translation in H4 Neuroglioblastoma Cells. [Related pubchem assays: 1829 (Project Summary), 1814 (Primary HTS)]; format: functional
[25] = target: Signal transducer and activator of transcription 3 (Homo sapiens, UniProt P40763); test: STAT3 activation with BCL3 mRNA and toxicity – cell-based, […], BCL3 qPCR, cytotoxicity, late-stage follow-up, panel member STAT3 Activation (AID 2049)
[26] = target: NACHT, LRR and PYD domains-containing protein 3 (Homo sapiens, UniProt Q96P20); test: NALP3 inhibitors in yeast, dose response, luminescent (AID 488799); format: functional
[27] = protection from phage-mediated lysis, alamar blue read-out – E. coli UTI89, K1F phage, bacterial capsule biogenesis inhibitors (AID 488966); format: functional
Hexokinase = Hexokinase (Trypanosoma brucei, UniProt Q38C41); test: Confirmation assay for inhibitors of Trypanosoma brucei hexokinase 1-Analogue-first series. [Related pubchem assays (depositor defined):AID1430, AID1632, AID2516, AID2560, AID2579, AID2600, AID449725, AID492951]; format: functional
[28] = target: Potassium voltage-gated channel subfamily KQT member 2 (Rattus norvegicus, UniProt O88943); test: potentiation of rat KCNQ2 current – cell-based, retigabine-insensitive compounds, dose response (AID 2654); format: functional
SUMO-activating enzyme [29] = target: T9, SUMO-activating enzyme (Homo sapiens, UniProt Q9UBT2); test: blockers of UBC9-mediated SUMO conjugation – biochemical, AlphaScreen, SUMOylation inhibitor project, confirmation (AID 2018); format: functional
[30] = target: T10, Probable nicotinate-nucleotide adenylyltransferase (Staphylococcus aureus (strain N315), UniProt P65502); format: functional, Staphylococcus aureus subsp. aureus N315;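 as to IC50 Mean: confirmatory dose-response retesting of NadD inhibitor hits first found in an ultra-high-throughput screen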
[31] = target: T10, Probable nicotinate-nucleotide adenylyltransferase; format: functional, Staphylococcus aureus subsp. aureus N315; settings: read-out: IC50_Mean
[32] = target: Induced myeloid leukemia cell differentiation protein Mcl-1 (Homo sapiens, UniProt Q07820); format: functional
SUMO-activating enzyme [33] = target: T9, SUMO-activating enzyme; test: blockers of SAE1/SAE2–UBC9 SUMO transfer – biochemical, HTRF, uHTS, primary screen (AID 2006); format: protein-complex assay

T1 sequence (P41145 whole entry): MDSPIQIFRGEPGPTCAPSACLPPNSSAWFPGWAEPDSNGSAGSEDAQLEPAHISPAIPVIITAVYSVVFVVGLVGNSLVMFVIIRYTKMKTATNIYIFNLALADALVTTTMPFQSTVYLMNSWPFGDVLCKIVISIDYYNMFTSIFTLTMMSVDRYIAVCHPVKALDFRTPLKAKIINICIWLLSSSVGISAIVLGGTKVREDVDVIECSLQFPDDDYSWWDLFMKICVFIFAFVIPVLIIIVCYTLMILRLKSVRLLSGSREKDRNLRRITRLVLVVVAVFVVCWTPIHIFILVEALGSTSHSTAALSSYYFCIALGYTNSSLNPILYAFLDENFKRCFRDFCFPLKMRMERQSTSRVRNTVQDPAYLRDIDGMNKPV
T4 sequence (P09923 whole entry): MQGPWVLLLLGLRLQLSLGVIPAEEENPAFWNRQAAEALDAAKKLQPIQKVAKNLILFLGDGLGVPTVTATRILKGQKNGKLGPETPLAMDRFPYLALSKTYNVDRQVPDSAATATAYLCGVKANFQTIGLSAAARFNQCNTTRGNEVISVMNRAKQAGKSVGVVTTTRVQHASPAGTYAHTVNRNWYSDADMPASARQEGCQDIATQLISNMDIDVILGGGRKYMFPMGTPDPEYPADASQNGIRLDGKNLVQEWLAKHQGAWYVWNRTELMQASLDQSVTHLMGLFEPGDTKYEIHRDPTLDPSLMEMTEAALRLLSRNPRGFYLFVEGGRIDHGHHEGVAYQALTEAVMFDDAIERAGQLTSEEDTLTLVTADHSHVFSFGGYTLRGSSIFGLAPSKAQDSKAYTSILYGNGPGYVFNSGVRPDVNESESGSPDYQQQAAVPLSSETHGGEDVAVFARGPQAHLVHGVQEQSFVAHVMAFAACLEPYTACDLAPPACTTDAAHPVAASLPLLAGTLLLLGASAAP
T10 sequence (P65502 whole entry): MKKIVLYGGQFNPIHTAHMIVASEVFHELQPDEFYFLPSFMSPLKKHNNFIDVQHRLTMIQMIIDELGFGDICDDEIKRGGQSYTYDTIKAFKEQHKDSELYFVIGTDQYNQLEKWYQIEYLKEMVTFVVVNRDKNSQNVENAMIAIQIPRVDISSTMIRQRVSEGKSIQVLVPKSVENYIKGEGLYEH
T9 sequence (Q9UBE0 whole entry): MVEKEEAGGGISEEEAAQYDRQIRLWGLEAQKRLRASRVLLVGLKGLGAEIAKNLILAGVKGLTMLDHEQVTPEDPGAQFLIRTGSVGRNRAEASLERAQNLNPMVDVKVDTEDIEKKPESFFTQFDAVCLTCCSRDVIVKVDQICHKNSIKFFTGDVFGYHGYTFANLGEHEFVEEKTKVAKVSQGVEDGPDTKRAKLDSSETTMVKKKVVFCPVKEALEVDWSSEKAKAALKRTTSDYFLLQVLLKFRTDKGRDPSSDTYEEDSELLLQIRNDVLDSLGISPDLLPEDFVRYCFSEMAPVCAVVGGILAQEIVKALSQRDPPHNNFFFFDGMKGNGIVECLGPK
T9 sequence (Q9UBT2 whole entry): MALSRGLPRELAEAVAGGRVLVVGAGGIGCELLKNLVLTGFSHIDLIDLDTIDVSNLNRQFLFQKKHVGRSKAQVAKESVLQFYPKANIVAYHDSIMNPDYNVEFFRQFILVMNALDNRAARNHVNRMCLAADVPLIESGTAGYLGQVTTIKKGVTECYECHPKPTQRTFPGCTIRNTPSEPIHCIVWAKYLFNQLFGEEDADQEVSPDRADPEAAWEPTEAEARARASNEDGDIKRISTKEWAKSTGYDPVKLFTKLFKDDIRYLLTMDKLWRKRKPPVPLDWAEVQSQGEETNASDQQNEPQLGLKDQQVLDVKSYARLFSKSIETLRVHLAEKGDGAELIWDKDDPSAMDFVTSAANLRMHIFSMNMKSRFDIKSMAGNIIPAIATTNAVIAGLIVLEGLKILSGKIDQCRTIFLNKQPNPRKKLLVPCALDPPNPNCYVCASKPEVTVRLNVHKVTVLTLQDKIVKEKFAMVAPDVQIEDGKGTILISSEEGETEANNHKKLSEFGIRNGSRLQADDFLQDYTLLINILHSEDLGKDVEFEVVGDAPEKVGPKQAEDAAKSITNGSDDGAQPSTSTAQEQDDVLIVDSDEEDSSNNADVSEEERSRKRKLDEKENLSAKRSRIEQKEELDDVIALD
T3 sequence (P35372 whole entry): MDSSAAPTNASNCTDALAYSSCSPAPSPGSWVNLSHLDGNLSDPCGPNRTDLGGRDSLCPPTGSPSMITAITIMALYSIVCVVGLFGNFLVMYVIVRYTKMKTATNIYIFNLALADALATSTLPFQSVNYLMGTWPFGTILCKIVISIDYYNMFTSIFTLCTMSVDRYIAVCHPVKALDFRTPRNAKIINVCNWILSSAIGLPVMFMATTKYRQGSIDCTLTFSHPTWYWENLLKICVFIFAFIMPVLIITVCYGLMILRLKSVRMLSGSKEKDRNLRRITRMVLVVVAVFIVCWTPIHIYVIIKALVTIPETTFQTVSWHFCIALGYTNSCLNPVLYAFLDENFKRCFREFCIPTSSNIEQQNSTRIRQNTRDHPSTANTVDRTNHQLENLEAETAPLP
T2 sequence (P41143 whole entry): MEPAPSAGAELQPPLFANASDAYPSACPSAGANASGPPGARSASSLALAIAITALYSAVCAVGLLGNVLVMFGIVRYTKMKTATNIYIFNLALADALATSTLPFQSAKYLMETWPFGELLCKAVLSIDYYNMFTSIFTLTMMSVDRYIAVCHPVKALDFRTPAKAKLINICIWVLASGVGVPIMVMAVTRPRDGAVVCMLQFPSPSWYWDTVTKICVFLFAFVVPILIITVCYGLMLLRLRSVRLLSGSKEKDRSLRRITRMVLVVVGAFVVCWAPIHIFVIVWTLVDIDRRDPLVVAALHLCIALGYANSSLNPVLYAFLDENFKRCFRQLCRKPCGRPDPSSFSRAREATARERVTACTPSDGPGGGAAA
T5 sequence (P24822 whole entry): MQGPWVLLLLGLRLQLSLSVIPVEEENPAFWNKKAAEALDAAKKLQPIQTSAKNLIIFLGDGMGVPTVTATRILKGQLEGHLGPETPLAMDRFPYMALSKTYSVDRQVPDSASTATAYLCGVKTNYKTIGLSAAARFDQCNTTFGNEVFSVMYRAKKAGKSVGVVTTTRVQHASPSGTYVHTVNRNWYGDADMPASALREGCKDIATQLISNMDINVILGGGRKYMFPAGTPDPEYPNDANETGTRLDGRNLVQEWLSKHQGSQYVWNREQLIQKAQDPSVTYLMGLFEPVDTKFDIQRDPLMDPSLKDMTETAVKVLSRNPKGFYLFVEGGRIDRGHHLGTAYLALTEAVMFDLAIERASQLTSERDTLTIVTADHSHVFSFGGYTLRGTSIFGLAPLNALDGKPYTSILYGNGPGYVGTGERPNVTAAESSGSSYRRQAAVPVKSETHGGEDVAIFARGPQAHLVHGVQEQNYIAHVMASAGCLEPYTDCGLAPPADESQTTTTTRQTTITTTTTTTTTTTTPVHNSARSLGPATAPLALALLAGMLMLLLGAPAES
Chain of E3 ubiquitin-protein ligase Mdm2 (Q00987 whole entry): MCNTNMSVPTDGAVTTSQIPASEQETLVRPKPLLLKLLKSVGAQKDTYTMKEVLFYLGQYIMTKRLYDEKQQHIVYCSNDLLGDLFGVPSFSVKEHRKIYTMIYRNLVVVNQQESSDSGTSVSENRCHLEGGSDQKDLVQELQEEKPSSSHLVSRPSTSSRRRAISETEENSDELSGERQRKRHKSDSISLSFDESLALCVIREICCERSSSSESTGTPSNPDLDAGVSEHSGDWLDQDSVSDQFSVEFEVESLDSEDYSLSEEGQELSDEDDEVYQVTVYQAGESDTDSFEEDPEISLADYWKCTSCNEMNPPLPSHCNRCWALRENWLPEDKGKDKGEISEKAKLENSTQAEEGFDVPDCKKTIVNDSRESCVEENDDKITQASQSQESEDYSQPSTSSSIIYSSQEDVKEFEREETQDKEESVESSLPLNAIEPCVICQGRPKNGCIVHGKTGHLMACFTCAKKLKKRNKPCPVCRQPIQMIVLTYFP
Chain of Induced myeloid leukemia cell differentiation protein Mcl-1 (Q07820 whole entry): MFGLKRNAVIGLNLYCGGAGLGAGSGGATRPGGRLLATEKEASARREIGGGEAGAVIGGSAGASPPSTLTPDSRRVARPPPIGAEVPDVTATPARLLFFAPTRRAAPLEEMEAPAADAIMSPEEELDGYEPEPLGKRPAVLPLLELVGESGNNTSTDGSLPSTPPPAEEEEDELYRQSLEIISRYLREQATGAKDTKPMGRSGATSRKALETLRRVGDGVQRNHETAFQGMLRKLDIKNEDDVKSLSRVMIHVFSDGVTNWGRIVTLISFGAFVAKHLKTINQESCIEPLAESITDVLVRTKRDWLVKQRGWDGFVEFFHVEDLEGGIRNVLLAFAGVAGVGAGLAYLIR
Chain of Bcl-2-like protein 10 (Q9HD36 whole entry): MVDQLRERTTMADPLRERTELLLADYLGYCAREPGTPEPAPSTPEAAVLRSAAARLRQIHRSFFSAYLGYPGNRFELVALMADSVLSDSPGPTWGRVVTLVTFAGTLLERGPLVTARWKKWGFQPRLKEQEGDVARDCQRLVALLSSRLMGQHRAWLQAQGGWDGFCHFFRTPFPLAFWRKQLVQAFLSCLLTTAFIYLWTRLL
Chain of Hexokinase (Q38C41 whole entry): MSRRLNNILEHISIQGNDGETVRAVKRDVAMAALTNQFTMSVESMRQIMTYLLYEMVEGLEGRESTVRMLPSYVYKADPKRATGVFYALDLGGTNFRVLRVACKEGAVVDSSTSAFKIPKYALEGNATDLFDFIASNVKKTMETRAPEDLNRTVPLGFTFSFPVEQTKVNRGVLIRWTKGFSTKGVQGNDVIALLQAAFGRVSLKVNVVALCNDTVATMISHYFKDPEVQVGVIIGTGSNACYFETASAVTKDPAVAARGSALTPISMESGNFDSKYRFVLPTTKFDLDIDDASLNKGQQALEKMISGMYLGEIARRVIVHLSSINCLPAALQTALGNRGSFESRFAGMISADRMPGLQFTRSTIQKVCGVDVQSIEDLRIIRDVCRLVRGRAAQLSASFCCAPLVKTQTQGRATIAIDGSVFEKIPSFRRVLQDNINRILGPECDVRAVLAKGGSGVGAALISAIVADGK

Clc1ccccc1CSc1nnc(-c2ccccn2)n1Cc1cccs1
EC50 [1]: 10.1 µM (inactive) | EC50 [2]: > 32 µM (inactive) | EC50 (Mu-type opioid receptor [3]): > 32 µM (inactive) | EC50 [4]: 4.06 µM (active)

COc1ccccc1C1=NN(C2=NN=C(N)Cc3ncnn32)C(O)(C(F)(F)F)C1 (stereo not given)
EC50 [5]: 7.06 µM (active) | IC50 [6]: 42.2 µM (active) | EC50 [7]: 9.66 µM (active) | EC50 [8]: 11.7 µM (active)

Cc1cccc(NS(=O)(=O)c2cccc(C(=O)NNC(=O)c3ccccc3O)c2)c1
EC50 [5]: 16.1 µM (active) | EC50 [9]: > 100 µM (inactive) | EC50 [7]: 23.5 µM (active) | EC50 [8]: 0.705 µM (active)

COc1ccc(OC)c(NC(=O)CCN2CCC(C)CC2)c1
IC50 (Bcl-2-like protein 10): > 100 µM (inactive)

Cc1cc(Cl)c(OCCCCN2CCOCC2)c(Br)c1
IC50 (Saccharomyces cerevisiae): > 100 µM (inactive) | IC50 [10]: > 100 µM (inactive)

CC(C)N(CCNC(=O)c1ccc(CNS(=O)(=O)c2ccc(Br)cc2)cc1)Cc1ccccc1
IC50 [11]: 0.421 µM (active) | IC50 [12]: 1.32 µM (active) | IC50 [13]: > 32 µM (inactive) | IC50 (Mu-type opioid receptor [14]): 3.22 µM (active)

COCCNC(=O)/C(C#N)=C/c1cccc(/C=C(\C#N)C(=O)NCCOC)c1
EC50 [15]: 0.94 µM (active) | IC50 [16]: > 56.8 µM (not active) | IC50 [17]: 1.51 µM (active) | AC50 [18]: 12.7 µM (active) | IC50 [19]: > 50 µM (inactive)

O=C1CCCCCN1Cc1nnc(SCc2nc3ccccc3s2)n1-c1ccccn1
EC50 [20]: 25 µM (active) | EC50 [21]: 0.207 µM (active) | EC50 [22]: 1.89 µM (active) | EC50 (H4): 80.9 µM (inconclusive) | EC50 [23]: > 195 µM (inactive) | EC50 [24]: 1.08 µM (active)

COc1ccccc1NC(=O)c1cc(-c2ccccc2)on1
EC50 [25]: 9.62 µM (active)

CCCCCC(=O)N1CCN(CC/N=C/C2=C(O)CC(c3ccco3)CC2=O)CC1 (stereo not given)
IC50 [26]: 7.3 µM (active)

COc1ccc(NC(=O)/C=C2\SC(=O)NC2=O)cc1
IC50 [27]: > 150 µM (active)

COc1ccc(C(=O)N2CCC(=O)c3ccc(Cl)cc32)cc1
IC50 (Hexokinase): > 25 µM (inactive)

O=C(Nc1ccc(Cl)nc1)Nc1cccc(F)c1
EC50 [28]: 2.81 µM (active)

N#Cc1c(NC(=O)CSc2ncnc3sccc23)oc(-c2ccco2)c1-c1ccco1
IC50 (SUMO-activating enzyme [29]): 2.82 µM (active) | IC50 [30]: 8.79 µM (active) | IC50 [31]: 27.8 µM (active) | IC50 [32]: 4.69 µM (active) | IC50 (SUMO-activating enzyme [33]): 22.9 µM (active)
